Laboratory results from US20240409647A1, “BISPECIFIC BINDING PROTEINS AGAINST ALARMINS AND USES THEREOF” (SINOMAB BIOSCIENCE LIMITED, priority 2022, published 2024).
Where “and” joins values, the source holds several entries; their conditions need not be identical. Equal entries are not always repeated.

Experiments:
cynomolgus IL17RB = assay: ELISA, SM17 binding to coated IL-17RB protein (cynomolgus); details: two wells
Method: A standard enzyme-linked immunosorbent assay (ELISA) method was used to determine the species specificity of SM17 against IL-17RB proteins. Briefly, IL-17RB proteins from human, mouse, cynomolgus or rhesus monkey (R&D systems, Minneapolis, MN) were diluted to 2.5 μg/ml in PBS and 50 μl of IL-17RB proteins were added to each well of ELISA strip. The strips were sealed with parafilm and incubated at 4° C. overnight for coating.
On the next day, strips were washed thrice with washing buffer (0.05% Tween 20 in PBS) and blocked with 100 μl per well with blocking buffer (3% BSA in PBS) for 2 hours RT before serially diluted SM17 (at a final concentration of 10, 2, 0.4, 0.08, 0.016, 0.0032, and 0.00064 μg/ml, respectively) was added.

[1] = system: IL-2/IL-25-treated human PBMC; assay: IL-5 release from IL-2/IL-25-treated human PBMC; format: cell-based; details: SM17 0.16 ng/mL to 5 mg/mL; 10 unit/mL IL-2, 10 μg/mL IL-25; 72 hours; dose dependent
Method: PBMC (Ixcells, San Diego, CA) co-cultured with IL-2 and IL-25 (PeproTech, Cranbury, NJ) can lead to the release of IL-5, a cytokine known to exacerbate the conditions of asthma. Accordingly, the inhibitory effect of SM17 on IL-5 release from IL-2/IL-25-treated human PBMC was evaluated. Briefly, cryopreserved human PBMC were thawed and cultured in RPMI-1640 medium supplemented with 10% Fetal Bovine Serum (Thermo Fisher Scientific). Serially diluted SM17 at concentrations ranging from 0.16 ng/mL to 5 mg/mL were added to 4×10^5 of human PBMC in the presence of 10 unit/mL of IL-2 and 10 μg/mL of IL-25. Non-specific human IgG4 (SinoBiological) was used as the control antibody. Treated cells were incubated for 72 hours at 37° C., and the level of IL-5 release in the culture supernatant was measured by standard ELISA assay (R&D systems). […] Results are presented as means±SEM. One Way ANOVA, Dunnett's Multiple Comparison Test, *: P<0.05; **: P<0.01.

TSLP = biological target: T1, TSLP (Homo sapiens, UniProt Q969D9); assay: ELISA, antigen binding specificity of bsBp (TSLP); set-up: key: −: no binding; +: weak; ++: moderate; +++: strong binding; N/A refers to no binding affinity; details: 33.5 nM; antigen coated at 2 μg/mL
T1 construct: purchased R&D systems
Method: Binding specificities of bsBp were evaluated by standard ELISA assays. Briefly, ELISA strips were coated with the respective target antigens, including IL17RB, IL-33, or TSLP (R&D systems) at a final concentration of 2 μg/mL. Bispecific antibodies were added at 33.5 nM to ELISA strips coated with the desired antigen. After incubation under room temperature for 2 hours, ELISA strips were washed five times with PBS. […] No result is provided for SM17-human TSLPR as the yield was too low to be detected.

hIL 17RD = biological target: T2, hIL 17RD (Homo sapiens, UniProt Q8NFM7); assay: ELISA, SM17 specificity against IL-17 receptor subunits (IL17RD); format: binding; details: 0.4 to 0.00064 μg/mL
T2 construct: purchased R&D systems
T2 sequence (Q8NFM7 17-739): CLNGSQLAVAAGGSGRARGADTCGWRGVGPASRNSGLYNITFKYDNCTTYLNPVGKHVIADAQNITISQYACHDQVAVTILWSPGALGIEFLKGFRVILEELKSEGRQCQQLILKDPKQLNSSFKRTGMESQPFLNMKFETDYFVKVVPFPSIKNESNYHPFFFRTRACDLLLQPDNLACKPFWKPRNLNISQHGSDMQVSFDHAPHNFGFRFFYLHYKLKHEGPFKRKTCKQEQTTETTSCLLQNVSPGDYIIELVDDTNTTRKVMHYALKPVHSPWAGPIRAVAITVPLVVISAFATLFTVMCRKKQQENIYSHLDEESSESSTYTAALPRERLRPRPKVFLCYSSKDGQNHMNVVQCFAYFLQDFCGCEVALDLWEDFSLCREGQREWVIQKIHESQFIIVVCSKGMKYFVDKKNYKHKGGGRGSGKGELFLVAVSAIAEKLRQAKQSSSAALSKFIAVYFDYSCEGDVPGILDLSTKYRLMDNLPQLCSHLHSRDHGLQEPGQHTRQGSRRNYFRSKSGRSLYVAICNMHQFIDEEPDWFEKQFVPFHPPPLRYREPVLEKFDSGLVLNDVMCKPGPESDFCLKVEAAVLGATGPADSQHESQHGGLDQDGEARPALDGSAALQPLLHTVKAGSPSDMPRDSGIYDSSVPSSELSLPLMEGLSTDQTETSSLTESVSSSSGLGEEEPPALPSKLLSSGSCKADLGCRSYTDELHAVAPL
Method: A standard ELISA method was used to determine the specificity of SM17 against other human IL17 receptor subunits. Similarly, serially diluted SM17 at different concentrations (final concentrations at 0.4, 0.08, 0.016, 0.0032 and 0.00064 μg/m, respectively) was added to the wells of ELISA plates coated either with human IL-17 receptor subunits A, C, D and E (IL17RA, IL17RC, IL17RD, and IL17RE) (R&D systems).

SM17: humanized anti-IL17RB monoclonal antibody, human IgG4 isotype; HC SEQ ID NO: 32, LC SEQ ID NO: 33
OD 450 nm Absorption, cynomolgus IL17RB (cynomolgus IL17RB; SM17 0.016 μg/mL): 0.34
OD 450 nm Absorption, cynomolgus IL17RB (cynomolgus IL17RB; SM17 0.08 μg/mL): 0.72 and 0.74
OD 450 nm Absorption, cynomolgus IL17RB (cynomolgus IL17RB; SM17 0.4 μg/mL): 0.89 and 0.97
OD 450 nm Absorption, cynomolgus IL17RB (cynomolgus IL17RB; SM17 2 μg/mL): 1.13 and 1.12
OD 450 nm Absorption, cynomolgus IL17RB (cynomolgus IL17RB; SM17 10 μg/mL): 1.33 and 1.37
release of IL-5 from human PBMC induced with IL-2 and IL-25 (in words) [1]: suppressed the release of IL-5
Intensity of specific antigen binding, TSLP coated on ELISA strips (TSLP): +
binding of SM17 to IL17RD (in words) (hIL 17RD): No obvious bindings
